What all share (experiment): cell-based
The target of one assay is hNav1.7 (Homo sapiens, UniProt Q15858). Format: cell-based. To be noted: PatchXpress, tonic block; read-out: PX hNav1.7 Tonic IC50.
The target of the next assay is hNav1.4 (Homo sapiens, UniProt P35499). To be noted: for IC50: PatchXpress, tonic block, read-out: PX hNav1.4 Tonic IC50; for Nav1.4/Nav1.7: ratio of PX tonic IC50 values.
The next assay deals with hNav1.5 (Homo sapiens, UniProt Q14524). The settings on record: for IC50: PatchXpress, tonic block, read-out: PX hNav1.5 Tonic IC50; for Nav1.5/Nav1.7: ratio of PX tonic IC50 values.
hNav1.5, sequence (Q14524 whole entry): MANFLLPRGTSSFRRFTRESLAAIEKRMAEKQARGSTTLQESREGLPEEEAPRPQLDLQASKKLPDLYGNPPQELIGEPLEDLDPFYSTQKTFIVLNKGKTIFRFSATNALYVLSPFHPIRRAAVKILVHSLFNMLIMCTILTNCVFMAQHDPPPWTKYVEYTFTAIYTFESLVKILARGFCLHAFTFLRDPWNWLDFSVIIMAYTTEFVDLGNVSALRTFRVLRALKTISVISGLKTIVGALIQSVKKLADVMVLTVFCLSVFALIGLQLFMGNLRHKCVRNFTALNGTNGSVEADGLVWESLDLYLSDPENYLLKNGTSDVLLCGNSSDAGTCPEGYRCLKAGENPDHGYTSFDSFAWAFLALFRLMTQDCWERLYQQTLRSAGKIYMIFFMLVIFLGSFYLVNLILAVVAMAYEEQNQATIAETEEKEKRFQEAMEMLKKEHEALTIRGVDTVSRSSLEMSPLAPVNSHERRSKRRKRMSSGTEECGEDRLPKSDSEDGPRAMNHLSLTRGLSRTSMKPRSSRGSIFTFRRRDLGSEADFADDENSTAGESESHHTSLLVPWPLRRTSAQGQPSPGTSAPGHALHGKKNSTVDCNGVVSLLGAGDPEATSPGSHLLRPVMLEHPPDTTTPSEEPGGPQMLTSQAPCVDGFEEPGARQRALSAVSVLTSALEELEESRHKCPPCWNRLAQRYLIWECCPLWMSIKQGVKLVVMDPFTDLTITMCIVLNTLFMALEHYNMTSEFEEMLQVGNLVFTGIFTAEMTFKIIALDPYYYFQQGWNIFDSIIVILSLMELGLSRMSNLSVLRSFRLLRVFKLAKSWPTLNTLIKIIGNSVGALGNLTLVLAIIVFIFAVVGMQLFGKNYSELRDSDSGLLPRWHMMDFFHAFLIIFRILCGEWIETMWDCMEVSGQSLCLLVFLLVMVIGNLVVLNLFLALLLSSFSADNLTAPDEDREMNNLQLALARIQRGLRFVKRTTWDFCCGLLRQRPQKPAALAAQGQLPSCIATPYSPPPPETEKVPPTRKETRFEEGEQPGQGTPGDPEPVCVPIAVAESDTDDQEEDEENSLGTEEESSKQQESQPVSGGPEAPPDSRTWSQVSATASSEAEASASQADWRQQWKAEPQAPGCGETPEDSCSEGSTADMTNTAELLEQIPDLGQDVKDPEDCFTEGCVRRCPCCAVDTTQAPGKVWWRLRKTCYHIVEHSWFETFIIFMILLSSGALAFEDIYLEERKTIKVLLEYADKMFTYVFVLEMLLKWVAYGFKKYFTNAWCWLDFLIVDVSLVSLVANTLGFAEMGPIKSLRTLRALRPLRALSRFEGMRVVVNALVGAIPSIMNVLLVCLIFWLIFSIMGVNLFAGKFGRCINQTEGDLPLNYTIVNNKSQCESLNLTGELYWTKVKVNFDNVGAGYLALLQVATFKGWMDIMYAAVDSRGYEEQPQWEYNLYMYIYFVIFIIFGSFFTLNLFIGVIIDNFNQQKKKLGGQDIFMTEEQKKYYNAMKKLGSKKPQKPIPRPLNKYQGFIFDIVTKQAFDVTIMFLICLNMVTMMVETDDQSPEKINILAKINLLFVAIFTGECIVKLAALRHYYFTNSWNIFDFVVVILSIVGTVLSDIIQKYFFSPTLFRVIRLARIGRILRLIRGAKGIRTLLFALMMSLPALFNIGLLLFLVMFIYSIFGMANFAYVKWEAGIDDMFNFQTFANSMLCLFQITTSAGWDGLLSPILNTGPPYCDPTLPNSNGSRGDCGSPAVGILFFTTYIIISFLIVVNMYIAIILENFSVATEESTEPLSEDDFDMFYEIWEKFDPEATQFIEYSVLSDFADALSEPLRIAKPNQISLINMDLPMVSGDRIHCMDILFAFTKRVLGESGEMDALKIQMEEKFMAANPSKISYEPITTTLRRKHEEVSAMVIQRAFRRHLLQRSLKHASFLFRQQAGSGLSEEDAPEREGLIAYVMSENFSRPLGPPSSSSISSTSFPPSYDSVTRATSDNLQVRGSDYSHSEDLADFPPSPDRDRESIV

hNav1.7, sequence (Q15858 whole entry): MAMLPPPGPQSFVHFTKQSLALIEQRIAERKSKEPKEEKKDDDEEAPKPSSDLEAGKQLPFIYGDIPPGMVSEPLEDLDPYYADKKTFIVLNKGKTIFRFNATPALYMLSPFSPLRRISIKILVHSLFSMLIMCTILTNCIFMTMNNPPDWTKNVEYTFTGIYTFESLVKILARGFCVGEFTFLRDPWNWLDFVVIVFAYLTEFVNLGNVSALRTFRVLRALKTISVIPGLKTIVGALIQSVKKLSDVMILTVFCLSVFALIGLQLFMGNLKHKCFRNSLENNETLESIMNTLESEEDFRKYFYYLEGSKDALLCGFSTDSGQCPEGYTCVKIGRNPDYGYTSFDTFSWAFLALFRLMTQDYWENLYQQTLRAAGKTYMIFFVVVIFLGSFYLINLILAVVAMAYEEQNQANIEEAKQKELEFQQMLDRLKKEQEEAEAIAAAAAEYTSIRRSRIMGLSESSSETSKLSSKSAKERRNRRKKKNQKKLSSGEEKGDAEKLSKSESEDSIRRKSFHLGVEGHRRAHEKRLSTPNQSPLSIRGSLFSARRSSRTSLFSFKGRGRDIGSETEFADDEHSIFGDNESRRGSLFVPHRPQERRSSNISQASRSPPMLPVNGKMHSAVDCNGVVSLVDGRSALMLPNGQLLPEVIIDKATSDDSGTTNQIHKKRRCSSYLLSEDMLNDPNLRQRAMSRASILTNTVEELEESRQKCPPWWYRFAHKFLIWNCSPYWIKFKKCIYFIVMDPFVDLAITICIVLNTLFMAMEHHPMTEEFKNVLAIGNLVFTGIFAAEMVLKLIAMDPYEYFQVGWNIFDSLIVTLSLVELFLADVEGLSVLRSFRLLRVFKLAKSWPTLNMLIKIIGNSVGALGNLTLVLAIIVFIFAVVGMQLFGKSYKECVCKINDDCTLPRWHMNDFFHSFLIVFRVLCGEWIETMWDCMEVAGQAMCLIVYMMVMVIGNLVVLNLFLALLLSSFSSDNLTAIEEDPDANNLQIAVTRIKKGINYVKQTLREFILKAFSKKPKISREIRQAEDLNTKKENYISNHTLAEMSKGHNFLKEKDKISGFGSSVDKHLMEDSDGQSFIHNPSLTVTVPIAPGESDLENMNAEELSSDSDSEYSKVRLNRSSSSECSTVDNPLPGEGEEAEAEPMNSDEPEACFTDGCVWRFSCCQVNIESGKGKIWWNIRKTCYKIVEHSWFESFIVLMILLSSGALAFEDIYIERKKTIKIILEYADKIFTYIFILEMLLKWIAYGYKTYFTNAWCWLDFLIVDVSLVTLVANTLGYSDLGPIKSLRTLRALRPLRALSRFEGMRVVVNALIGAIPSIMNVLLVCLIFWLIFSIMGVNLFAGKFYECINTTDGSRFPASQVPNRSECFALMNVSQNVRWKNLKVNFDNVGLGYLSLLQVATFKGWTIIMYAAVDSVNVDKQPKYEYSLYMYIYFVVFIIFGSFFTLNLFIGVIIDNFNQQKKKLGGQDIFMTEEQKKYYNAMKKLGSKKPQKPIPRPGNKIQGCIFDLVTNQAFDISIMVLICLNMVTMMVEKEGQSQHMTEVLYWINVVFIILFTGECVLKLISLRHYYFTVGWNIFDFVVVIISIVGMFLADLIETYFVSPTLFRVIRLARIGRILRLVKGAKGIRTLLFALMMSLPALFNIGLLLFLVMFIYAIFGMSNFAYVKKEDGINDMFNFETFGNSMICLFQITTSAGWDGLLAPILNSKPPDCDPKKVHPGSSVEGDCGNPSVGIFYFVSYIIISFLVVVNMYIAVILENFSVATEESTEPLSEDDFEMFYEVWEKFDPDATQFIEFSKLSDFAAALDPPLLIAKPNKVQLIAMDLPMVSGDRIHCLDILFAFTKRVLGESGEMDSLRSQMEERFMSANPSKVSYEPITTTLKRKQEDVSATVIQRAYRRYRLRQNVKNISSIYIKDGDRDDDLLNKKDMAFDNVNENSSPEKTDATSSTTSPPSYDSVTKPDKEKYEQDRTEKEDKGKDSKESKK

Broadly, the IC50 is the concentration needed to halve the response being measured. Consider `C#CC[C@H](N)C(=O)N[C@@H](Cc1ccc(O)cc1)C(=O)N[C@H]1CSSC[C@@H]2NC(=O)[C@@H]3CSSC[C@@H](C(=O)N[C@@H](CCCNC(=N)N)C(=O)N[C@@H](CCCCN)C(=O)N[C@H](C(=O)N[C@@H](Cc4c[nH]c5ccccc45)C(N)=O)[C@@H](C)CC)NC(=O)[C@H](Cc4c[nH]c5ccccc45)NC(=O)[C@H](CC(C)C)NC(=O)[C@H](CCCCN)NC(=O)[C@H](CSSC[C@H](NC(=O)[C@H]([C@@H](C)O)NC(=O)[C@H](Cc4c[nH]c5ccccc45)NC(=O)[C@H](Cc4ccccc4)NC(=O)[C@H](Cc4c[nH]c5ccccc45)NC(=O)[C@H](CCCCN)NC(=O)[C@H](CCC(N)=O)NC1=O)C(=O)N[C@@H](CC(=O)O)C(=O)N[C@@H](CO)C(=O)N[C@@H](CCCCN)C(=O)N[C@@H](CCCNC(=N)N)C(=O)N[C@@H](C)C(=O)N3)NC(=O)[C@H](CCC(=O)O)NC(=O)[C@H](CC(C)C)NC(=O)CNC(=O)[C@H](CCC(=O)O)NC2=O` [compound 298], for which, at hNav1.7, the IC50 was 15 nM. On hNav1.4, the IC50 was determined as 661 nM and the Nav1.4/Nav1.7 was found to be 44. Further, on hNav1.5, the IC50 is 780 nM and the Nav1.5/Nav1.7 came out at 52.

On to `C#CC[C@H](N)C(=O)N[C@@H](Cc1ccc(O)cc1)C(=O)N[C@H]1CSSC[C@@H]2NC(=O)[C@@H]3CSSC[C@@H](C(=O)N[C@@H](CCCNC(=N)N)C(=O)N[C@@H](CCCCN)C(=O)N[C@H](C(=O)N[C@@H](Cc4c[nH]c5ccccc45)C(N)=O)[C@@H](C)CC)NC(=O)[C@H](Cc4c[nH]c5ccccc45)NC(=O)[C@H](CC(C)C)NC(=O)[C@H](CCCCN)NC(=O)[C@H](CSSC[C@H](NC(=O)[C@H]([C@@H](C)O)NC(=O)[C@H](Cc4c[nH]c5ccccc45)NC(=O)[C@H](CC(C)C)NC(=O)[C@H](Cc4c[nH]c5ccccc45)NC(=O)[C@H](CCCCN)NC(=O)[C@H](CCC(N)=O)NC1=O)C(=O)N[C@@H](CC(=O)O)C(=O)N[C@@H](CO)C(=O)N[C@@H](CCCCN)C(=O)N[C@@H](CCCNC(=N)N)C(=O)N[C@@H](C)C(=O)N3)NC(=O)[C@H](CCC(=O)O)NC(=O)[C@H](CC(C)C)NC(=O)CNC(=O)[C@H](CCC(=O)O)NC2=O` [compound 299], for which the values for the 50% inhibitory concentration (IC50) at hNav1.7, at hNav1.4 and at hNav1.5 were 0.571 nM, 1180 nM and 1330 nM, respectively.

Regarding `C#CC[C@H](N)C(=O)N[C@@H](Cc1ccc(O)cc1)C(=O)N[C@H]1CSSC[C@@H]2NC(=O)[C@@H]3CSSC[C@@H](C(=O)N[C@@H](CCCNC(=N)N)C(=O)N[C@@H](CCCCN)C(=O)N[C@H](C(=O)N[C@@H](Cc4c[nH]c5ccccc45)C(N)=O)[C@@H](C)CC)NC(=O)[C@H](Cc4c[nH]c5ccccc45)NC(=O)[C@H](CC(C)C)NC(=O)[C@H](CCCCN)NC(=O)[C@H](CSSC[C@H](NC(=O)[C@H]([C@@H](C)O)NC(=O)[C@H](Cc4c[nH]c5ccccc45)NC(=O)[C@H](CCC)NC(=O)[C@H](Cc4c[nH]c5ccccc45)NC(=O)[C@H](CCCCN)NC(=O)[C@H](CCC(N)=O)NC1=O)C(=O)N[C@@H](CC(=O)O)C(=O)N[C@@H](CO)C(=O)N[C@@H](CCCCN)C(=O)N[C@@H](CCCNC(=N)N)C(=O)N[C@@H](C)C(=O)N3)NC(=O)[C@H](CCC(=O)O)NC(=O)[C@H](CC(C)C)NC(=O)CNC(=O)[C@H](CCC(=O)O)NC2=O` [compound 300], the results for the IC50 at hNav1.7, on hNav1.4 and at hNav1.5 were 0.818 nM, 967 nM and 5300 nM, respectively.

With `CCCC[C@@H]1NC(=O)[C@H](Cc2c[nH]c3ccccc23)NC(=O)[C@H](CCCCN)NC(=O)[C@H](CCC(N)=O)NC(=O)[C@@H](NC(=O)[C@@H](N)CCCCN=[N+]=[N-])CSSC[C@@H]2NC(=O)[C@@H]3CSSC[C@@H](C(=O)N[C@@H](CCCNC(=N)N)C(=O)N[C@@H](CCCCN)C(=O)N[C@H](C(=O)N[C@@H](Cc4c[nH]c5ccccc45)C(N)=O)[C@@H](C)CC)NC(=O)[C@H](Cc4c[nH]c5ccccc45)NC(=O)[C@H](CC(C)C)NC(=O)[C@H](CCCCN)NC(=O)[C@H](CSSC[C@H](NC(=O)[C@H]([C@@H](C)O)NC(=O)[C@H](Cc4c[nH]c5ccccc45)NC1=O)C(=O)N[C@@H](CC(=O)O)C(=O)N[C@@H](CO)C(=O)N[C@@H](CCCCN)C(=O)N[C@@H](CCCNC(=N)N)C(=O)N[C@@H](C)C(=O)N3)NC(=O)[C@H](CCC(=O)O)NC(=O)[C@H](CC(C)C)NC(=O)CNC(=O)[C@H](CCC(=O)O)NC2=O` [compound 304], the IC50 on hNav1.7 was found to be 3.86 nM; at hNav1.4, 1740 nM; at hNav1.5, 2560 nM.

As to `CCCC[C@@H]1NC(=O)[C@H](Cc2c[nH]c3ccccc23)NC(=O)[C@H](CCCCN)NC(=O)[C@H](CCC(N)=O)NC(=O)[C@@H](NC(=O)[C@@H](N)Cc2ccc(O)cc2)CSSC[C@@H]2NC(=O)[C@@H]3CSSC[C@@H](C(=O)N[C@@H](CCCNC(=N)N)C(=O)N[C@@H](CCCCN)C(=O)N[C@H](C(=O)N[C@@H](Cc4c[nH]c5ccccc45)C(N)=O)[C@@H](C)CC)NC(=O)[C@H](Cc4c[nH]c5ccccc45)NC(=O)[C@H](CC(C)C)NC(=O)[C@H](CCCCN)NC(=O)[C@H](CSSC[C@H](NC(=O)[C@H]([C@@H](C)O)NC(=O)[C@H](Cc4c[nH]c5ccccc45)NC1=O)C(=O)N[C@@H](CC(=O)O)C(=O)N[C@@H](CCCCN=[N+]=[N-])C(=O)N[C@@H](CCCCN)C(=O)N[C@@H](CCCNC(=N)N)C(=O)N[C@@H](C)C(=O)N3)NC(=O)[C@H](CCC(=O)O)NC(=O)[C@H](CC(C)C)NC(=O)CNC(=O)[C@H](CCC(=O)O)NC2=O` [compound 305], on hNav1.7, the IC50 came out at 435 nM. Moreover, at hNav1.4, the Nav1.4/Nav1.7 is on record as 0. Also, the Nav1.5/Nav1.7 on hNav1.5 was determined as 0.

For `CCCC[C@@H]1NC(=O)[C@H](Cc2c[nH]c3ccccc23)NC(=O)[C@H](CCCCN)NC(=O)[C@H](CCC(N)=O)NC(=O)[C@@H](NC(=O)[C@@H](N)Cc2ccc(O)cc2)CSSC[C@@H]2NC(=O)[C@@H]3CSSC[C@@H](C(=O)N[C@@H](CCCNC(=N)N)C(=O)N[C@@H](CCCCN)C(=O)N[C@H](C(=O)N[C@@H](Cc4c[nH]c5ccccc45)C(N)=O)[C@@H](C)CC)NC(=O)[C@H](Cc4c[nH]c5ccccc45)NC(=O)[C@H](CC(C)C)NC(=O)[C@H](CCCCN)NC(=O)[C@H](CSSC[C@H](NC(=O)[C@H]([C@@H](C)O)NC(=O)[C@H](Cc4c[nH]c5ccccc45)NC1=O)C(=O)N[C@@H](CC(=O)O)C(=O)N[C@@H](CO)C(=O)N[C@@H](CCCCN)C(=O)N[C@@H](CCCNC(=N)N)C(=O)N[C@@H](CCCCN=[N+]=[N-])C(=O)N3)NC(=O)[C@H](CCC(=O)O)NC(=O)[C@H](CC(C)C)NC(=O)CNC(=O)[C@H](CCC(=O)O)NC2=O` [compound 306], the IC50 was found to be 1.15 nM at hNav1.7, 635 nM at hNav1.4 and 1970 nM on hNav1.5. The Nav1.4/Nav1.7 at hNav1.4 worked out at 550.

Turning to `CCCC[C@@H]1NC(=O)[C@H](Cc2c[nH]c3ccccc23)NC(=O)[C@H](CCCCN)NC(=O)[C@H](CCC(N)=O)NC(=O)[C@@H](NC(=O)[C@@H](N)Cc2ccc(O)cc2)CSSC[C@@H]2NC(=O)[C@@H]3CSSC[C@@H](C(=O)N[C@@H](CCCNC(=N)N)C(=O)N[C@@H](CCCCN)C(=O)N[C@H](C(=O)N[C@@H](Cc4c[nH]c5ccccc45)C(N)=O)[C@@H](C)CC)NC(=O)[C@H](Cc4c[nH]c5ccccc45)NC(=O)[C@H](CC(C)C)NC(=O)[C@H](CCCCN)NC(=O)[C@H](CSSC[C@H](NC(=O)[C@H]([C@@H](C)O)NC(=O)[C@H](Cc4c[nH]c5ccccc45)NC1=O)C(=O)N[C@@H](CC(=O)O)C(=O)N[C@@H](CO)C(=O)N[C@@H](CCCCN)C(=O)N[C@@H](CCCNC(=N)N)C(=O)N[C@@H](C)C(=O)N3)NC(=O)[C@H](CCC(=O)O)NC(=O)[C@H](CC(C)C)NC(=O)CNC(=O)[C@H](CCCCN=[N+]=[N-])NC2=O` [compound 307], at hNav1.7, the IC50 stood at 9.08 nM. Further, at hNav1.4, the IC50 came to 360 nM and the Nav1.4/Nav1.7 is recorded as 40. Besides, on hNav1.5, the IC50 turned out to be 750 nM and the Nav1.5/Nav1.7 is listed as 83.

With `CCCC[C@@H]1NC(=O)[C@H](Cc2c[nH]c3ccccc23)NC(=O)[C@H](CCCCN)NC(=O)[C@H](CCC(N)=O)NC(=O)[C@@H](NC(=O)[C@H](Cc2ccc(O)cc2)NC(=O)[C@@H](N)CCN=[N+]=[N-])CSSC[C@@H]2NC(=O)[C@@H]3CSSC[C@@H](C(=O)N[C@@H](CCCNC(=N)N)C(=O)N[C@@H](CCCCN)C(=O)N[C@H](C(=O)N[C@@H](Cc4c[nH]c5ccccc45)C(N)=O)[C@@H](C)CC)NC(=O)[C@H](Cc4c[nH]c5ccccc45)NC(=O)[C@H](CC(C)C)NC(=O)[C@H](CCCCN)NC(=O)[C@H](CSSC[C@H](NC(=O)[C@H]([C@@H](C)O)NC(=O)[C@H](Cc4c[nH]c5ccccc45)NC1=O)C(=O)N[C@@H](CC(=O)O)C(=O)N[C@@H](CO)C(=O)N[C@@H](CCCCN)C(=O)N[C@@H](CCCNC(=N)N)C(=O)N[C@@H](C)C(=O)N3)NC(=O)[C@H](CCC(=O)O)NC(=O)[C@H](CC(C)C)NC(=O)CNC(=O)[C@H](CCC(=O)O)NC2=O` [compound 308], the results for the IC50 on hNav1.7, at hNav1.4 and on hNav1.5 were 1.12 nM, 1200 nM and 3770 nM, respectively.

For `CCCC[C@@H]1NC(=O)[C@H](Cc2c[nH]c3ccccc23)NC(=O)[C@H](CCCCN)NC(=O)[C@H](CCC(N)=O)NC(=O)[C@@H](NC(=O)[C@@H](N)CCN=[N+]=[N-])CSSC[C@@H]2NC(=O)[C@@H]3CSSC[C@@H](C(=O)N[C@@H](CCCNC(=N)N)C(=O)N[C@@H](CCCCN)C(=O)N[C@H](C(=O)N[C@@H](Cc4c[nH]c5ccccc45)C(N)=O)[C@@H](C)CC)NC(=O)[C@H](Cc4c[nH]c5ccccc45)NC(=O)[C@H](CC(C)C)NC(=O)[C@H](CCCCN)NC(=O)[C@H](CSSC[C@H](NC(=O)[C@H]([C@@H](C)O)NC(=O)[C@H](Cc4c[nH]c5ccccc45)NC1=O)C(=O)N[C@@H](CC(=O)O)C(=O)N[C@@H](CO)C(=O)N[C@@H](CCCCN)C(=O)N[C@@H](CCCNC(=N)N)C(=O)N[C@@H](C)C(=O)N3)NC(=O)[C@H](CCC(=O)O)NC(=O)[C@H](CC(C)C)NC(=O)CNC(=O)[C@H](CCC(=O)O)NC2=O` [compound 309], the results for the IC50 on hNav1.7, at hNav1.4 and at hNav1.5 were 3.21 nM, 767 nM and 2030 nM, respectively.

Values taken from patent US9636418B2 (priority 2013, dated 2017).
